From patent US10111435B2, “Herbicidal compositions containing N-(1,3,4-oxadiazol-2-yl)-aryl carboxylic acid amides” (BAYER CROPSCIENCE AKTIENGESELLSCHAFT, priority 2013, dated 2018)

Experiments:
Assay type in all cases: in vivo
[1] = system: Eleusine indica (ELEIN); assay: greenhouse post-emergence herbicidal efficacy against ELEIN
Protocol: (§1) All trials whose results are shown were conducted in a greenhouse by the methodology specified below. The effect of the inventive herbicidal compositions was examined on the following harmful plants 14 and 21 days after application:
(§2) Echinochloa crus-galli (ECHCG), Eleusine indica (ELEIN), Setaria viridis (SETVI), Amaranthus retroflexus (AMARE), Chenopodium album (CHEAL), Kochia scoparia (KCHSC), Solanum nigrum (SOLNI), Avena fatua (AVEFA), Bromus sterilis (BROST), Lolium multiflorum (LOLMU), Phalaris minor (PHAMI), Poa annua (POAAN), Galium aparine (GALAP), Matricaria inodora (MATIN) and Polygonum convolvulus (POLCO).
(§3) The harmful plant seeds were sown in pots (diameter 8 cm) with sandy loam soil and germinated under optimal conditions. The inventive herbicidal compositions or the active ingredients alone were applied post-emergence to the planted pots with a spray volume of 300 L/ha. The trial was conducted in a greenhouse under optimum growth conditions. The herbicidal effects were assessed visually by comparison of untreated and treated plants. The percentages mean: 0%=no effects, 100%=the plants die off completely). The percentages are used to calculate interactions between individual treatments and combination treatments according to S. R. Colby, Weeds 15, pages 20 to 22 (1967).
(§4) The abbreviations mean: • a.i.=active ingredient • E^C=expected value according to Colby (E^C=A+B−A×B/100) • Diff: =difference (%) of measured value from expected value (%) (measured value minus expected value)
(§5) Assessment: • measured value E is greater than E^C:->synergism (+ diff.) • measured value E equals E^C:->additive effect • measured value E is smaller than E^C:->antagonism(− diff.)

[2] = system: DIGSA; assay: greenhouse post-emergence herbicidal efficacy against DIGSA
Protocol: as §1, §3, §4, §5

[3] = system: Polygonum convolvulus (POLCO); assay: greenhouse post-emergence herbicidal efficacy against POLCO
Protocol: as §1, §2
as §3, with “completely).” for “completely). The percentages are used to calculate interactions between individual treatments and combination treatments according to S. R. Colby, Weeds 15, pages 20 to 22 (1967).”
as §4, §5

[4] = system: Matricaria inodora (MATIN); assay: greenhouse post-emergence herbicidal efficacy against MATIN
Protocol: as §1, §2
as §3, with “completely).” for “completely). The percentages are used to calculate interactions between individual treatments and combination treatments according to S. R. Colby, Weeds 15, pages 20 to 22 (1967).”
as §4, §5

[5] = system: Galium aparine (GALAP); assay: greenhouse post-emergence herbicidal efficacy against GALAP
Protocol: as §1, §2
as §3, with “completely).” for “completely). The percentages are used to calculate interactions between individual treatments and combination treatments according to S. R. Colby, Weeds 15, pages 20 to 22 (1967).”
as §4, §5

[6] = system: Chenopodium album (CHEAL); assay: greenhouse post-emergence herbicidal efficacy against CHEAL
Protocol: as §1, §2, §3, §4, §5

[7] = system: Phalaris minor (PHAMI); assay: greenhouse post-emergence herbicidal efficacy against PHAMI
Protocol: as §1, §2
as §3, with “completely).” for “completely). The percentages are used to calculate interactions between individual treatments and combination treatments according to S. R. Colby, Weeds 15, pages 20 to 22 (1967).”
as §4, §5

[8] = system: Poa annua (POAAN); assay: greenhouse post-emergence herbicidal efficacy against POAAN
Protocol: as §1, §2
as §3, with “completely).” for “completely). The percentages are used to calculate interactions between individual treatments and combination treatments according to S. R. Colby, Weeds 15, pages 20 to 22 (1967).”
as §4, §5

[9] = system: Lolium multiflorum (LOLMU); assay: greenhouse post-emergence herbicidal efficacy against LOLMU
Protocol: as §1, §2
as §3, with “completely).” for “completely). The percentages are used to calculate interactions between individual treatments and combination treatments according to S. R. Colby, Weeds 15, pages 20 to 22 (1967).”
as §4, §5

[10] = system: Bromus sterilis (BROST); assay: greenhouse post-emergence herbicidal efficacy against BROST
Protocol: as §1, §2
as §3, with “completely).” for “completely). The percentages are used to calculate interactions between individual treatments and combination treatments according to S. R. Colby, Weeds 15, pages 20 to 22 (1967).”
as §4, §5

[11] = system: Amaranthus retroflexus (AMARE); assay: greenhouse post-emergence herbicidal efficacy against AMARE
Protocol: as §1, §2, §3, §4, §5

[12] = system: Setaria viridis (SETVI); assay: greenhouse post-emergence herbicidal efficacy against SETVI
Protocol: as §1, §2, §3, §4, §5

[13] = system: Avena fatua (AVEFA); assay: greenhouse post-emergence herbicidal efficacy against AVEFA
Protocol: as §1, §2
as §3, with “completely).” for “completely). The percentages are used to calculate interactions between individual treatments and combination treatments according to S. R. Colby, Weeds 15, pages 20 to 22 (1967).”
as §4, §5

[14] = system: Solanum nigrum (SOLNI); assay: greenhouse post-emergence herbicidal efficacy against SOLNI; conditions: 21 days after application
Protocol: as §1, §2, §3, §4, §5

[15] = system: Echinochloa crus-galli (ECHCG); assay: greenhouse post-emergence herbicidal efficacy against ECHCG
Protocol: as §1, §2, §3, §4, §5

[16] = system: Kochia scoparia (KCHSC); assay: greenhouse post-emergence herbicidal efficacy against KCHSC; conditions: 21 days after application, 4 g of a.i./ha
Protocol: as §1, §2, §3, §4, §5

[17] = 14 days after application, 2 g of a.i./ha
[18] = 21 days after application, 2 g of a.i./ha
[19] = 14 days after application, 0.5 g of a.i./ha
[20] = 14 days after application, 2.5 g of a.i./ha
[21] = 14 days after application, 10 g of a.i./ha
[22] = 21 days after application, g of a.i./ha: A1-55 10, glufosinate-ammonium 25
[23] = 21 days after application, g of a.i./ha: A1-55 10, glufosinate-ammonium 100
[24] = 21 days after application, g of a.i./ha: A1-55 2.5, glufosinate-ammonium 25
[25] = 21 days after application, g of a.i./ha: A1-55 2.5, glufosinate-ammonium 100
[26] = 14 days after application, 200 g of a.i./ha
[27] = 21 days after application, g of a.i./ha: A1-34 50, iodosulfuron-methyl-sodium 0.5
[28] = 21 days after application, g of a.i./ha: A1-34 50, iodosulfuron-methyl-sodium 2
[29] = 14 days after application, 50 g of a.i./ha
[30] = 21 days after application, g of a.i./ha: A1-34 200, iodosulfuron-methyl-sodium 2
[31] = 21 days after application, 25 g of a.i./ha
[32] = 21 days after application, 100 g of a.i./ha
[33] = 14 days after application, 400 g of a.i./ha
[34] = 14 days after application, 100 g of a.i./ha
[35] = 21 days after application, 400 g of a.i./ha
[36] = 21 days after application, 4 g of a.i./ha
[37] = 21 days after application, g of a.i./ha: A2-1 12.5, fluroxypyr 20
[38] = 21 days after application, g of a.i./ha: A2-1 50, fluroxypyr 20
[39] = 21 days after application, g of a.i./ha: A2-1 12.5, fluroxypyr 80
[40] = 21 days after application, g of a.i./ha: A2-1 50, fluroxypyr 80
[41] = 14 days after application, 12.5 g of a.i./ha

Cc1nnc(NC(=O)c2ccc(C(F)(F)F)c(-n3cccn3)c2Cl)o1 [A1-55]
Efficacy [1, 17]: 40% | Efficacy [1, 18]: 30% | Efficacy [2, 19]: 20% | Efficacy [2, 18]: 30% | Efficacy [3, 20]: 0% | Efficacy [3, 21]: 0% | Efficacy [3, 22]: 0% | Efficacy [3, 23]: 0% | Efficacy [4, 20]: 0% | Efficacy [4, 21]: 30% | Efficacy [4, 24]: 0% | Efficacy [4, 25]: 0% | Efficacy [4, 22]: 20% | Efficacy [4, 23]: 20% | Efficacy [5, 20]: 0% | Efficacy [5, 21]: 30% | Efficacy [5, 22]: 15% | Efficacy [6, 17]: 70% | Efficacy [7, 20]: 0% | Efficacy [7, 21]: 25% | Efficacy [7, 24]: 0% | Efficacy [7, 25]: 0% | Efficacy [7, 22]: 5% | Efficacy [7, 23]: 5% | Efficacy [8, 20]: 5% | Efficacy [8, 21]: 20% | Efficacy [8, 25]: 0% | Efficacy [8, 23]: 0% | Efficacy [9, 20]: 0% | Efficacy [9, 21]: 15% | Efficacy [9, 25]: 0% | Efficacy [9, 23]: 10% | Efficacy [10, 20]: 5% | Efficacy [10, 25]: 0% | Efficacy [10, 22]: 10% | Efficacy [11, 19]: 20% | Efficacy ([11]; 21 days after application, 0.5 g of a.i./ha): 10% | Efficacy [12, 17]: 40% | Efficacy [12, 18]: 30% | Efficacy [13, 20]: 0% | Efficacy [13, 25]: 0% | Efficacy [13, 23]: 10%

Cc1c(C(=O)Nc2nnc(C3CC3)o2)ccc(C(F)(F)F)c1[S+](C)[O-] (stereo not drawn) [A1-34]
Efficacy [3, 26]: 30% | Efficacy [3, 27]: 0% | Efficacy [3, 28]: 0% | Efficacy [4, 27]: 50% | Efficacy [5, 29]: 50% | Efficacy [5, 27]: 20% | Efficacy [5, 30]: 40% | Efficacy [6, 31]: 70% | Efficacy [7, 26]: 60% | Efficacy [8, 26]: 85% | Efficacy [9, 29]: 5% | Efficacy [9, 26]: 30% | Efficacy [10, 29]: 10% | Efficacy [10, 28]: 15% | Efficacy [10, 30]: 35% | Efficacy [11, 31]: 30% | Efficacy [11, 32]: 50% | Efficacy ([14]; 25 g of a.i./ha): 10% | Efficacy [13, 30]: 5%

N#Cc1cc(Br)c(O)c(Br)c1 [bromoxynil]
pest or weed control at 100 g/ha ([1]; Eleusine indica, post-emergence, 336 h, 14 days after application, 100 g of a.i./ha): 0% | pest or weed control at 400 g/ha ([1]; Eleusine indica, post-emergence, 336 h, 14 days after application, 400 g of a.i./ha): 0% | Efficacy [2, 33]: 0% | Efficacy [2, 34]: 0% | Efficacy [2, 32]: 0% | Efficacy [2, 35]: 0% | Efficacy [6, 33]: 85% | Efficacy [6, 35]: 75% | Efficacy [11, 34]: 40% | Efficacy [12, 33]: 0% | Efficacy [12, 34]: 0% | Efficacy [12, 32]: 0% | Efficacy [12, 35]: 0% | Efficacy [15, 33]: 0% | Efficacy [15, 34]: 0% | Efficacy [15, 35]: 0%

Cc1nnc(NC(=O)c2ccc(C(F)(F)F)nc2C)o1 [A2-1]
Efficacy [1, 36]: 60% | Efficacy [3, 29]: 70% | Efficacy [3, 37]: 20% | Efficacy [3, 38]: 60% | Efficacy [4, 37]: 80% | Efficacy [4, 39]: 80% | Efficacy [4, 38]: 85% | Efficacy [4, 40]: 85% | Efficacy [7, 41]: 15% | Efficacy [7, 39]: 0% | Efficacy [7, 40]: 15% | Efficacy [8, 41]: 15% | Efficacy [8, 37]: 0% | Efficacy [8, 39]: 0% | Efficacy [9, 41]: 0% | Efficacy [9, 29]: 0% | Efficacy [9, 40]: 0% | Efficacy [10, 41]: 0% | Efficacy [10, 40]: 0% | Efficacy ([14]; 1 g of a.i./ha): 10% | Efficacy [16]: 40% | Efficacy [12, 36]: 20% | Efficacy [13, 41]: 0% | Efficacy [13, 29]: 0% | Efficacy [13, 39]: 0% | Efficacy [13, 40]: 0% | Efficacy ([15]; 14 days after application, 4 g of a.i./ha): 50% | Efficacy [15, 36]: 40%
